Data as given in patent US20250387424A1, “PHARMACEUTICAL COMPOSITION COMPRISING A3 ADENOSINE RECEPTOR AGONIST FOR TREATMENT OF PSORIASIS” (CAN-FITE BIOPHARMA LTD., priority 2022, published 2025).

Experiments:
[1] = system: patients with moderate to severe plaque psoriasis; assay: COMFORT-1 phase 3 trial, safety (TEAEs, ECG); conditions: for serious TEAE (number): not considered drug related; for tolerability: 32-week study period
Text: The COMFORT-1 study was a phase 3 multicenter (with sites in Bosnia, Bulgaria, Canada, Israel, Moldova, Poland, Romania, and Serbia) randomized, double-blind, controlled clinical trial in moderate-to-severe plaque psoriasis (ClinicalTrials.gov identifier: NCT03168256). […] Eligible patients were randomly assigned to these arms in a 3:3:3:2 ratio. Blinding was maintained using a double-dummy technique. The second segment (Weeks 16-32) included 3 treatment arms, as at Week 16, the patients in the placebo arm were re-randomized to piclidenoson 2 mg BID, piclidenoson 3 mg BID, or apremilast (dose-titrated over 6 days to 30 mg BID) in a 1:1:1 ratio and treated through Week 32. Those originally assigned to piclidenoson or apremilast remained on their initially assigned treatment through Week 32. Blinding was maintained through Week 32. Patients were evaluated every 2 weeks for efficacy and safety.
Safety assessments included treatment emergent adverse events (TEAEs) and changes in vital signs, physical examination, clinical laboratory tests (liver, kidney, hematology, chemistry, and urinalysis), and electrocardiogramdings.
Overall, 4 analysis populations were defined: The safety population included all patients who received ≥1 dose of piclidenoson; the intent-to-treat (ITT) population included all those in the safety population with at least one PASI score recorded post-BL and excluded patients who withdrew prior to Week 16 due to COVID-19-related study suspension; the modified ITT (mITT) population, which was used for the Week 16 efficacy analyses, included all ITT patients except one patient in the placebo arm who was excluded due to major protocol violations that were not captured in the original data; and lastly, the per protocol (PP) population, which was used for the Week 32 analyses, and included all ITT patients who had no major protocol violations on or before Week 16 and who completed Week 16 of the study. Exclusion from the PP population was finalized prior to any unblinded analyses. The analyses conducted for Week 32 were performed separately for patients who were initially randomized to piclidenoson or apremilast and for those who were initially randomized to the placebo group.
Descriptive statistics were used to summarize patient characteristics and safety. […] If a patient had more than one TEAE with the same PT, the patient was counted once.

[2] = system: patients with moderate to severe plaque psoriasis; assay: COMFORT-1 phase 3 trial, efficacy (PASI, PGA2, PDI); type: in vivo, human
[3] = COMFORT-1 phase 3 trial, pharmacokinetics (Cmax, AUC); type: in vivo, human; conditions: 2 mg BID arm compared with 3 mg BID arm; Weeks 0, 8, 16
Procedure: The trial had 2 segments (FIG. 1). […] Blinding was maintained through Week 32.
The primary endpoints included the proportion of patients achieving PASI 75 in the piclidenoson 2 mg and 3 mg BID arms vs. placebo at Week 16 (superiority) and safety. Secondary endpoints at Week 16 compared the piclidenoson arms to placebo and included the proportion of patients achieving PASI 50, the proportion of patients achieving a score of 0 or 1 in PGA2 (a PASI-based measure calculated using the intensity grading of components of the PASI score; specifically, it is the average of the PASI erythema, infiltration, and desquamation scores) [Gordon, K. B. et al. N Engl J Med 373, 136-144 (2015)], and the proportion of patients experiencing an improvement from BL in Psoriasis Disability Index (PDI). Additional secondary endpoints were evaluated at Week 32 and compared the piclidenoson arms to apremilast. These included the proportion of patients achieving PASI 75, PASI 50, PGA2 of 0 or 1, and the proportion of patients experiencing an improvement from BL in PDI. PK analysis, including calculating the peak concentration of the drug in the bloodstream after administration (Cmax), was conducted for Weeks 0, 8, and 16.

[4] = apremilast 30 mg BID, Weeks 0-32, safety population N = 177
[5] = apremilast 30 mg BID, Week 32, PP population
[6] = piclidenoson 2 mg BID, Weeks 0-32, safety population N = 179
[7] = piclidenoson 3 mg BID, Weeks 0-32, safety population N = 173

For `CCOc1cc([C@@H](CS(C)(=O)=O)N2C(=O)c3cccc(NC(C)=O)c3C2=O)ccc1OC` [Apremilast, apremilast, reference compound], the “Incidence of TEAE: GI disorders: Any” value [1, 4] was 7.3%, the “Incidence of TEAE: Nervous system: Any” value [1, 4] was 9.6% and the “serious TEAE (number)” value ([1]; apremilast 30 mg BID, pneumonia) was 1. For the same compound, the “patients who withdrew from the study due to TEAEs” value (“patients who withdrew” for short) ([1]; apremilast arm, Weeks 0-32) was 1, the “patients achieving improvement from baseline in PDI (number/arm total)” value [2, 5] was 59/108 and the “proportion of patients achieving PASI 50” value [2, 5] was 25.2%. The “proportion of patients achieving improvement from BL in PDI” value (from here on “proportion … in PDI”) [2, 5] was 55.1%, the “proportion of patients with PGA2 of 0 or 1” value (“proportion … of 0 or 1” below) [2, 5] was 24.3% and the “proportion of patients achieving PASI 75” value ([2]; apremilast 30 mg BID, Week 32, PP population, initially randomized to active treatment) was 26.2%.

For `CNC(=O)[C@H]1O[C@@H](n2cnc3c(NCc4cccc(I)c4)ncnc32)[C@H](O)[C@@H]1O` [Piclidenoson, methyl 1-[N^6-(3-iodobenzyl)-adenin-9-yl]-β-D-ribofuronamide], the safety profile ([1]; 3 mg dose of piclidenoson) was “excellent and better than apremilast”, the “safety profile compared with placebo” value ([1]; both piclidenoson dosages, placebo used only Week 0 through Week 16) was “generally comparable to that of placebo” and the “safety profile compared with apremilast” value ([1]; piclidenoson 2 mg BID and 3 mg BID) was “more favorable than that of apremilast”. The “patients who withdrew” value ([1]; piclidenoson 2 mg BID arm, Weeks 0-32) was 2, the tolerability ([1]; piclidenoson 2 mg BID) was “well-tolerated” and the “Incidence of TEAE: GI disorders: Any” value [1, 6] was 2.8%. For the same compound, the “Incidence of TEAE: Infections/infestations: Nasopharyngitis” value [1, 6] was 2.2%, the “Incidence of TEAE: Infections/infestations: Urinary tract infection” value [1, 6] was 3.4% and the “Incidence of TEAE: Nervous system: Any” value [1, 6] was 1.7%. For the same compound, the “serious TEAE (number)” value ([1]; piclidenoson 2 mg BID, arterial embolism) was 1, the “patients who withdrew” value ([1]; piclidenoson 3 mg BID arm, Weeks 0-32) was 5 and the tolerability ([1]; piclidenoson 3 mg BID) was “well-tolerated”. The “Incidence of TEAE: GI disorders: Any” value [1, 7] was 1.2%, the “Incidence of TEAE: Infections/infestations: Nasopharyngitis” value [1, 7] was 2.9% and the “Incidence of TEAE: Nervous system: Any” value [1, 7] was 1.7%. For the same compound, the “serious TEAE (number)” value ([1]; piclidenoson 3 mg BID, osteomyelitis) was 1, the “proportion of patients achieving PGA2 (0 or 1)” value ([2]; piclidenoson 2 mg BID, Week 16, mITT population, p=0.027 vs placebo) was 11.8%±2.8% and the “proportion of patients achieving PASI 50” value ([2]; piclidenoson 2 mg BID, Week 16, mITT population, p=0.060 vs placebo) was 26.0%. For the same compound, the “proportion of patients achieving PASI 75” value ([2]; piclidenoson 2 mg BID, Week 16, mITT population, p=0.075 vs placebo) was 7.9%±2.4%, the “proportion of patients achieving PDI improvement from BL” value ([2]; piclidenoson 2 mg BID, Week 16, mITT population, p=0.70 vs placebo) was 63.3% and the “proportion of patients achieving PASI 75” value ([2]; piclidenoson 2 mg BID, Week 32, PP population, initially randomized to active treatment, noninferiority vs apremilast p=0.429) was 20.8%. The “proportion … of 0 or 1” value ([2]; piclidenoson 2 mg BID, Week 32, PP population, noninferiority vs apremilast p=0.417) was 18.9%, the “proportion … in PDI” value ([2]; piclidenoson 2 mg BID, Week 32, PP population, noninferiority vs apremilast p=0.66) was 48.1% and the “proportion of patients achieving PASI 50” value ([2]; piclidenoson 2 mg BID, Week 32, PP population, noninferiority vs apremilast p=0.75) was 17.0%. The “proportion of patients achieving PASI 75” value ([2]; piclidenoson 3 mg BID, Week 16, mITT population, p=0.037 vs placebo) was 9.7%±1.8%, the “proportion of patients achieving PASI 75” value ([2]; piclidenoson 3 mg BID, Week 16, mITT population, p=0.037 vs placebo, listed as piclidenoson) was 9.7% and the “proportion of patients achieving PGA2 (0 or 1)” value ([2]; piclidenoson 3 mg BID, Week 16, mITT population, p=0.068 vs placebo) was 10.7%±3.0%. For the same compound, the “proportion of patients achieving PASI 50” value ([2]; piclidenoson 3 mg BID, Week 16, mITT population, p=0.475 vs placebo) was 19.4%, the “proportion of patients achieving PDI improvement from BL” value ([2]; piclidenoson 3 mg BID, Week 16, mITT population, p=1.00 vs placebo) was 58.3% and the “patients achieving improvement from baseline in PDI (number/arm total)” value ([2]; piclidenoson 3 mg BID, Week 32, PP population) was 51/88. The “proportion of patients achieving PASI 75” value ([2]; piclidenoson 3 mg BID, Week 32, PP population, initially randomized to active treatment, noninferiority vs apremilast p=0.881) was 17.0%, the “proportion … in PDI” value ([2]; piclidenoson 3 mg BID, Week 32, PP population, noninferiority vs apremilast p=0.072) was 58.0% and the “proportion of patients achieving PASI 50” value ([2]; piclidenoson 3 mg BID, Week 32, PP population, noninferiority vs apremilast p=0.49) was 19.3%. For the same compound, the “proportion … of 0 or 1” value ([2]; piclidenoson 3 mg BID, Week 32, PP population, noninferiority vs apremilast p=0.777) was 15.9% and the “exposure as measured by both Cmax and AUC” value [3] was “similar”.
